Structures can show the parent of a compound that is named as a salt.
These molecules were tested against T1, recombinant human ALX receptor (Homo sapiens, UniProt P25090) (assay: Intracellular calcium measurements (FLIPR), ALX receptor agonistic activity). Conditions: HEK293-hALXR-Gα16 cells, Fluo-4 calcium signal, normalized to WKYMVm 10 nM.
T1 construct: expressed in transfected cells; host or cells: HEK293 (HEK293-hALXR-Gα16)
T1 sequence (P25090 1-351): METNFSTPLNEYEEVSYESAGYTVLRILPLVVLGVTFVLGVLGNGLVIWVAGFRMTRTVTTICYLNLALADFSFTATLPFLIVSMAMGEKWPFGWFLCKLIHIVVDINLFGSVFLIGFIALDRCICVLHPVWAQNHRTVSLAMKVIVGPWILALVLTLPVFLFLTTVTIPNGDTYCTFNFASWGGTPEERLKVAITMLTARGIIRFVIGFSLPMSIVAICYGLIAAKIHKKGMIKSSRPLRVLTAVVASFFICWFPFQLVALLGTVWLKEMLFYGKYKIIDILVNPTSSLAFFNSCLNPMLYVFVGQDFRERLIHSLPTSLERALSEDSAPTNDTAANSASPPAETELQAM
Format: cell-based
Summary of the method: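 HEK293 cells co-expressing human ALX receptor and Gα16 were loaded with 1 μM Fluo-4 AM for 60 min at 37° C., then exposed to serially diluted compounds on FLIPR Tetra. Peak fluorescence above baseline (ex 488/em 540 nm) was normalized to 10 nM WKYMVm as high control.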

Compound | EC50 [nM]
COc1ccc(C[C@@H](NC(=O)N[C@H]2CC[C@H](O)CC2)c2nc3ccccc3[nH]2)cc1 [Example 4, 1-((R)-1-(1H-Benzo[d]imidazol-2-yl)-2-(4-methoxyphenyl)ethyl)-3-(trans-4-hydroxycyclohexyl)urea] | 7.8
COc1ccc(C[C@@H](NC(=O)NCc2cccc(OC)c2)c2nc3ccccc3[nH]2)cc1 [Example 5, (R)-1-(1-(1H-Benzo[d]imidazol-2-yl)-2-(4-methoxyphenyl)ethyl)-3-(3-methoxybenzyl)urea] | 602
COc1ccc(C[C@@H](NC(=O)NCCc2cccc(OC)c2)c2nc3ccccc3[nH]2)cc1 [Example 6, (R)-1-(1-(1H-Benzo[d]imidazol-2-yl)-2-(4-methoxyphenyl)ethyl)-3-(3-methoxyphenethyl)urea] | 378
COc1ccc(CC(NC(=O)NCCc2ccccn2)c2nc3ccccc3[nH]2)cc1 (centres unmarked) [Example 8, 1-(1-(1H-Benzo[d]imidazol-2-yl)-2-(4-methoxyphenyl)ethyl)-3-(2-(pyridin-2-yl)ethyl)urea] | 593
COc1ccc(CC(NC(=O)NCC(F)(F)F)c2nc3ccccc3[nH]2)cc1 (centres unmarked) [Example 9, 1-(1-(1H-Benzo[d]imidazol-2-yl)-2-(4-methoxyphenyl)ethyl)-3-(2,2,2-trifluoroethyl)urea] | 450
COc1ccc(CC(NC(=O)NC2CCOCC2)c2nc3ccccc3[nH]2)cc1 (centres unmarked) [Example 10, 1-(1-(1H-Benzo[d]imidazol-2-yl)-2-(4-methoxyphenyl)ethyl)-3-(tetrahydro-2H-pyran-4-yl)urea] | 113
COc1ccc(CC(NC(=O)NC2CCC2)c2nc3ccccc3[nH]2)cc1 (centres unmarked) [Example 11, 1-(1-(1H-Benzo[d]imidazol-2-yl)-2-(4-methoxyphenyl)ethyl)-3-cyclobutylurea] | 62
COc1ccc(C[C@@H](NC(=O)NC2CCc3ccccc3C2)c2nc3ccccc3[nH]2)cc1 (stereo partly drawn) [Example 15, 1-((R)-1-(1H-Benzo[d]imidazol-2-yl)-2-(4-methoxyphenyl)ethyl)-3-(1,2,3,4-tetrahydronaphthalen-2-yl)urea hydrochloride] | 59
COc1ccc(C[C@@H](NC(=O)N[C@H]2CCc3ccccc32)c2nc3ccccc3[nH]2)cc1 [Example 20, 1-((R)-1-(1H-Benzo[d]imidazol-2-yl)-2-(4-methoxyphenyl)ethyl)-3-((S)-2,3-dihydro-1H-inden-1-yl)urea] | 712
COc1ccc(C[C@@H](NC(=O)N[C@@H]2CCC[C@@H]2O)c2nc3ccccc3[nH]2)cc1 [Example 21, 1-((R)-1-(1H-Benzo[d]imidazol-2-yl)-2-(4-methoxyphenyl)ethyl)-3-((1R,2S)-2-hydroxycyclopentyl)urea] | 29
COc1ccc(C[C@@H](NC(=O)NC2CC3CCC2C3)c2nc3ccccc3[nH]2)cc1 (stereo partly drawn) [Example 25, 1-((R)-1-(1H-Benzo[d]imidazol-2-yl)-2-(4-methoxyphenyl)ethyl)-3-(bicyclo[2.2.1]heptan-2-yl)urea] | 9.7
COc1ccc(C[C@@H](NC(=O)NC2CCc3cccc(OC)c3C2)c2nc3ccccc3[nH]2)cc1 (stereo partly drawn) [Example 30, 1-((R)-1-(1H-Benzo[d]imidazol-2-yl)-2-(4-methoxyphenyl)ethyl)-3-(8-methoxy-1,2,3,4-tetrahydronaphthalen-2-yl)urea] | 26
COc1ccc(C[C@@H](NC(=O)NC2CCCC(C)C2)c2nc3ccccc3[nH]2)cc1 (stereo partly drawn) [Example 33, 1-((R)-1-(1H-Benzo[d]imidazol-2-yl)-2-(4-methoxyphenyl)ethyl)-3-(3-methylcyclohexyl)urea] | 130
COc1ccc(CC(NC(=O)NC2CCCC(O)C2)c2nc3ccccc3[nH]2)cc1 (centres unmarked) [Example 37, 1-(1-(1H-Benzo[d]imidazol-2-yl)-2-(4-methoxyphenyl)ethyl)-3-(3-hydroxycyclohexyl)urea] | 27
COc1ccc(CC(NC(=O)NCc2nc3ccccc3s2)c2nc3ccccc3[nH]2)cc1 (centres unmarked) [Example 38, 1-(1-(1H-Benzo[d]imidazol-2-yl)-2-(4-methoxyphenyl)ethyl)-3-(benzo[d]thiazol-2-ylmethyl)urea] | 198
COc1ccc(CC(NC(=O)NCCc2ccccc2OC)c2nc3ccccc3[nH]2)cc1 (centres unmarked) [Example 40, 1-(1-(1H-Benzo[d]imidazol-2-yl)-2-(4-methoxyphenyl)ethyl)-3-(2-methoxyphenethyl)urea] | 62
COc1ccc(CC(NC(=O)NCc2ccccc2Cl)c2nc3ccccc3[nH]2)cc1 (centres unmarked) [Example 45, 1-(1-(1H-Benzo[d]imidazol-2-yl)-2-(4-methoxyphenyl)ethyl)-3-(2-chlorobenzyl)urea] | 760

The next lines start with the values.

EC50 [nM] | Compound
315 | COc1ccc(C[C@@H](NC(=O)Nc2cc(C)n(C)n2)c2nc3ccccc3[nH]2)cc1 [Example 7, (R)-1-(1-(1H-Benzo[d]imidazol-2-yl)-2-(4-methoxyphenyl)ethyl)-3-(1,5-dimethyl-1H-pyrazol-3-yl)urea]
45 | COc1ccc(CC(NC(=O)NC2CCCC2)c2nc3ccccc3[nH]2)cc1 (centres unmarked) [Example 12, 1-(1-(1H-Benzo[d]imidazol-2-yl)-2-(4-methoxyphenyl)ethyl)-3-cyclopentylurea]
27 | COc1ccc(C[C@@H](NC(=O)NC2CC=CC2)c2nc3ccccc3[nH]2)cc1 [Example 13, (R)-1-(1-(1H-Benzo[d]imidazol-2-yl)-2-(4-methoxyphenyl)ethyl)-3-(cyclopent-3-en-1-yl)urea hydrochloride]
38 | COc1ccc(C[C@@H](NC(=O)NC2CCC(F)(F)CC2)c2nc3ccccc3[nH]2)cc1 [Example 14, (R)-1-(1-(1H-Benzo[d]imidazol-2-yl)-2-(4-methoxyphenyl)ethyl)-3-(4,4-difluorocyclohexyl)urea]
47 | COc1ccc(C[C@@H](NC(=O)NC2CCCCC2)c2nc3ccccc3[nH]2)cc1 [Example 17, (R)-1-(1-(1H-Benzo[d]imidazol-2-yl)-2-(4-methoxyphenyl)ethyl)-3-cyclohexylurea hydrochloride]
600 | COc1ccc(C[C@@H](NC(=O)NC2CC2)c2nc3ccccc3[nH]2)cc1 [Example 19, (R)-1-(1-(1H-Benzo[d]imidazol-2-yl)-2-(4-methoxyphenyl)ethyl)-3-cyclopropylurea]
85 | COc1ccc(C[C@@H](NC(=O)NC2CCC(C)CC2)c2nc3ccccc3[nH]2)cc1 (stereo partly drawn) [Example 22, (R)-1-(1-(1H-Benzo[d]imidazol-2-yl)-2-(4-methoxyphenyl)ethyl)-3-(4-methylcyclohexyl)urea]
124 | COc1ccc(C[C@@H](NC(=O)NC2CCCCC2C)c2nc3ccccc3[nH]2)cc1 (stereo partly drawn) [Example 23, 1-((R)-1-(1H-Benzo[d]imidazol-2-yl)-2-(4-methoxyphenyl)ethyl)-3-(2-methylcyclohexyl)urea]
109 | COc1ccc(C[C@@H](NC(=O)NC2Cc3ccccc3C2)c2nc3ccccc3[nH]2)cc1 [Example 26, (R)-1-(1-(1H-Benzo[d]imidazol-2-yl)-2-(4-methoxyphenyl)ethyl)-3-(2,3-dihydro-1H-inden-2-yl)urea]
26 | COc1ccc(C[C@@H](NC(=O)NC2CCCc3ccccc32)c2nc3ccccc3[nH]2)cc1 (stereo partly drawn) [Example 27, 1-((R)-1-(1H-Benzo[d]imidazol-2-yl)-2-(4-methoxyphenyl)ethyl)-3-(1,2,3,4-tetrahydronaphthalen-1-yl)urea]
26 | COc1ccc(C[C@@H](NC(=O)NCc2ccccc2Cn2cncn2)c2nc3ccccc3[nH]2)cc1 [Example 31, (R)-1-(2-((1H-1,2,4-Triazol-1-yl)methyl)benzyl)-3-(1-(1H-benzo[d]imidazol-2-yl)-2-(4-methoxyphenyl)ethyl)urea]
5.4 | O=C(N[C@H](Cc1ccc(Br)cc1)c1nc2ccccc2[nH]1)N[C@H]1CC[C@H](O)CC1 [Example 35, 1-((R)-1-(1H-Benzo[d]imidazol-2-yl)-2-(4-bromophenyl)ethyl)-3-(trans-4-hydroxycyclohexyl)urea]
1 | COc1ccc(C[C@@H](NC(=O)N[C@H]2CC[C@H](O)CC2)c2nc3ccc(Cl)cc3[nH]2)cc1 [Example 36, 1-((R)-1-(6-Chloro-1H-benzo[d]imidazol-2-yl)-2-(4-methoxyphenyl)ethyl)-3-(trans-4-hydroxycyclohexyl)urea]
516 | COc1ccc(CC(NC(=O)NCc2cccc(OC)c2)c2nc3ccccc3[nH]2)cc1 (centres unmarked) [Example 39, 1-(1-(1H-Benzo[d]imidazol-2-yl)-2-(4-methoxyphenyl)ethyl)-3-(3-methoxybenzyl)urea]
776 | COc1ccc(CC(NC(=O)N[C@H](C)c2cccc(Cl)c2)c2nc3ccccc3[nH]2)cc1 (stereo partly drawn) [Example 41, 1-(1-(1H-Benzo[d]imidazol-2-yl)-2-(4-methoxyphenyl)ethyl)-3-((R)-1-(3-chlorophenyl)ethyl)urea]
814 | COc1ccc(CC(NC(=O)NCCc2c(C)noc2C)c2nc3ccccc3[nH]2)cc1 (centres unmarked) [Example 42, 1-(1-(1H-Benzo[d]imidazol-2-yl)-2-(4-methoxyphenyl)ethyl)-3-(2-(3,5-dimethylisoxazol-4-yl)ethyl)urea]
611 | COc1ccc(CC(NC(=O)NCc2ccc(Cl)cc2)c2nc3ccccc3[nH]2)cc1 (centres unmarked) [Example 43, 1-(1-(1H-Benzo[d]imidazol-2-yl)-2-(4-methoxyphenyl)ethyl)-3-(4-chlorobenzyl)urea]
466 | COc1ccc(CC(NC(=O)NCc2ccccc2OC)c2nc3ccccc3[nH]2)cc1 (centres unmarked) [Example 44]
